Series [1] concerns panel of human cancer cells (HeLa, MCF-7, HepG2, Hep3B, H1299, A549, PC3). The series can be described thus: cells. Format: cell-based. Here is the method: The test compounds of liensinine, isoliensinine, dauricine, cepharanthine, hernandezine and thalidezine were dissolved in DMSO at a final concentration of 100 mmol/L and stored at −20° C. Cytotoxicity was assessed using the 3-(4,5-dimethylthiazol-2-yl)-2,5-diphenyltetrazolium bromide assay as described previously. 4000-8000 HeLa (human cervical cancer), MCF-7 (human breast cancer), HepG2 (human liver cancer), Hep3B (human liver cancer), H1299 (human lung cancer), A549 (human lung cancer), PC3 (human prostate cancer) and LO2 (human normal liver) cells were seeded on 96-well plates per well. After overnight pre-incubation, the cells were exposed to different concentrations of liensinine, isoliensinine, dauricine, cepharanthine, hernandezine and thalidezine (0.039-100 μmol/L) for 3 days. Specifically, the following concentrations are used for all of the above alkaloids: […], 0.039 μmol/L. Subsequently, 10 μL of MTT reagents was added to each well and incubated at 37° C. for 4 hours followed by the addition of 100 μL solubilization buffer (10% SDS in 0.01 mol/L HCl) and overnight incubation. Absorbance at 585 nm was determined from each well on the following day. The percentage of cell viability was calculated using the following formula: Cell viability (%)=Cells number treated/Cells number DMSO control×100. Data was obtained from three independent experiments.

Series [2] concerns HeLa cancer cells. The series can be described thus: Quantification of autophagy GFP-LC3 puncta in HeLa cells. Format: cell-based, human. The note with it: 20 μM liensinine or 10 μM others, 4 hours, compared to DMSO control (FIG. 2a). Here is the method: GFP-LC3 puncta formation was quantified as previously described. In brief, GFP-LC3 transfected cells grown on coverslips in a 6-well plate were treated with or without 20 μM of […], 10 μM of isoliensinine, dauricine, cepharanthine, hernandezine or thalidezine for 4 hours, the cells were then fixed in 4% paraformaldehyde for 20 minutes at room temperature and then rinsed with PBS. Slides were mounted with FluorSaveTM mounting media (Calbiochem, San Diego, Calif.) and examined by fluorescence microscopy. The number of GFP-positive cells with GFP-LC3 puncta formation was examined under the Nikon ECLIPSE 80i microscope. Representative images were captured with CCD digital camera Spot RT3TM (Diagnostic Instruments, Inc., Melville, N.Y.). To quantify for autophagy, the percentage of cells with punctate GFP-LC3 fluorescence was calculated by counting the number of the cells with punctate GFP-LC3 fluorescence in GFP-positive cells. A minimum of 150 cells from 3 randomly selected fields was scored.

In series [3] the test system is LC3-II. The series can be described thus: Detection of autophagic marker protein LC3 conversion (Western blot). Format: cell-based, human. The following applies: HeLa cells, Western blot (FIG. 2b). Here is the method:
After treatments with […], isoliensinine, dauricine, cepharanthine, hernandezine and thalidezine, cells were harvested and lysed in RIPA buffer (Cell Signaling Technologies Inc., Beverly, Mass.). The cell lysates were then resolved by SDS-PAGE. After electrophoresis, the proteins from SDS-PAGE were transferred to nitrocellulose membrane which was then blocked with 5% non-fat dried milk for 60 minutes. The membrane was then incubated with LC3 primary antibodies (1:1000) in TBST overnight at 4° C. After that, the membrane was further incubated with HRP-conjugated secondary antibodies for 60 minutes. Finally, protein bands were visualized by using the ECL Western Blotting Detection Reagents (Invitrogen, Paisley, Scotland, UK).

For series [4], the system named is p70S6K. The series can be described thus: Detection of mTOR signaling marker proteins: p70S6K phosphorylation (Western blot). The following applies: HeLa cells, 20 μM liensinine or 10 μM others (FIG. 5a). Format: cell-based, human. As for the experimental part: HeLa cells treated with 20 μM of […], 10 μM of isoliensinine, 10 μM of dauricine, 10 μM of cepharanthine, 10 μM of hernandezine and 10 μM of thalidezine were harvested and lysed in RIPA buffer (Cell Signaling). The cell lysates were then resolved by SDS-PAGE. After electrophoresis, the proteins from SDS-PAGE were transferred to nitrocellulose membrane which was then blocked with 5% non-fat dried milk for 60 minutes. The membrane was then incubated with P-p70S6K, p70S6K, P-AMPK, AMPK and actin primary antibodies (1:1000) in TBST overnight at 4° C. respectively. After that, the membrane was further incubated with HRP-conjugated secondary antibodies for 60 minutes. Finally, protein bands were visualized by using the ECL Western Blotting Detection Reagents (Invitrogen).

The subject of series [5] is HeLa cells expressing GFP-LC3. The series can be described thus: GFP-LC3 puncta quantification in the presence of AMPK inhibitor compound C. Format: cell-based, human. The note with it: compound C 5 μM, 24 hours (FIG. 5b). As for the experimental part: GFP-LC3 puncta formation was quantified as previously described. In brief, HeLa cells expressing GFP-LC3 were treated with indicated concentrations of […], isoliensinine, dauricine, cepharanthine, hernandezine and thalidezine in the presence of AMPK inhibitor, compound C (CC, 5 μM), for 24 hours. The cells were then fixed in 4% paraformaldehyde for 20 minutes at room temperature and then rinsed with PBS. Slides were mounted with FluorSaveTM mounting media (Calbiochem) and examined by fluorescence microscopy. To quantify for autophagy, the percentage of cells with punctate GFP-LC3 fluorescence was calculated by counting the number of the cells with punctate GFP-LC3 fluorescence in GFP-positive cells. A minimum of 150 cells from 3 randomly selected fields were scored.

Series [6] deals with EGFP-tagged mutant huntingtin (HDQ55, HDQ74). The series can be described thus: Removal of mutant huntingtin by immunoblotting against EGFP. Format: cell-based. The note with it: PC 12 cells, 5-10 μM, 24 h, immunoblotting against EGFP antibody (FIG. 8b). As for the experimental part:
(§1) PC 12 cells were transfected transiently with EGFP-HDQ55/74 plasmids for 24 h using Lipofectamine Plus LTX reagent (Invitrogen) according to the manufacturer's protocol. The transfected cells were then treated with […], isoliensinine, dauricine, cepharanthine, hernandezine and thalidezine for 24 h. The removal of mutant huntingtin, ([…]74) was then quantitated by immunoblotting with antibody against EGFP or by immunocytochemistry under fluorescence microscopy.
For orientation: In western blotting, separated proteins are transferred to a membrane and probed.

For series [7], the system named is mutant huntingtin aggregate (HDQ55). The series can be described thus: Mutant huntingtin aggregate by fluorescence imaging. The following applies: PC 12 cells, fluorescence imaging (FIG. 8c). Format: cell-based. Here is the method:
as §1

The subject of series [8] is autophagy deficient cells (Atg7−/− or Atg7-ko) MEFs. The series can be described thus: Annexin V / propidium iodide flow cytometry in Atg7 wild-type and deficient MEFs. Format: cell-based, mouse. As for the experimental part:
Cell viability was measured using an annexin V staining kit (BD Biosciences, San Jose, Calif., USA). Briefly, Atg7 wild-type (Atg7+/+ or Atg7-wt) and Atg7 deficient (Atg7−/− or Atg7-ko) mouse embryonic fibroblasts (MEFs) were treated with the selected alkaloids for 24 h. Cells were then harvested and analysed by multiparametric flow cytometry using FITC-Annexin V and Propidium iodide staining (BD Biosciences, San Jose, Calif., USA) according to the manufacturer's instructions. Flow cytometry was then carried out using a FACSCalibur flow cytometer (BD Biosciences, San Jose, Calif., USA). Data acquisition and analysis was performed with CellQuest (BD Biosciences, San Jose, Calif., USA). Data were obtained from three independent experiments.
In general terms: Flow cytometry measures light scatter and fluorescence of single cells or particles in a stream.

Setting [9] is: Homo sapiens, 72 h, read-out: mean IC50 value (cell cytotoxicity).
The mark [10] stands for this setting: MEFs, 24 h, annexin V/PI flow cytometry (FIGS. 6a to 6c).

Read-outs that look alike come from different tables or passages of the source.

On to `COc1ccc2cc1Oc1ccc(cc1)C[C@H]1c3cc(c(OC)cc3CCN1C)Oc1c(OC)c(OC)c(OC)c3c1[C@H](C2)N(C)CC3` [hernandezine], for which the IC50 in series [1] (setting [9]) was in the range of 4.52 to 61.8 µM. Further, the GFP-LC3 puncta formation result in series [2] is on record as “significantly induced”. Also, the “conversion of the autophagic marker LC3-II” value (from here on “conversion”) in series [3] was “induced”. For the same compound, the “downstream p70S6K phosphorylation” value in series [4] is recorded as “concomitant reduction”. The “compound-induced GFP-LC3 puncta formation in the presence of AMPK inhibitor (Compound C)” value in series [5] was “significant reduction”. Besides, the “clearance of overexpressed EGFP-tagged mutant huntingtin (HDQ55, HDQ74)” value (“clearance” for short) in series [6] is recorded as “enhanced”. Moreover, in series [7], the “formed mutant huntingtin aggregate (HDQ55)” value is reported as “significantly reduced”.
Turning to `COc1ccc(C[C@@H]2c3cc(Oc4cc(C[C@@H]5c6cc(O)c(OC)cc6CCN5C)ccc4O)c(OC)cc3CCN2C)cc1` [isoliensinine], the concentration for half-maximal inhibition (IC50) in series [1] (setting [9]) lay in the range of 4.52 to 61.8 µM. The GFP-LC3 puncta formation result in series [2] was “significantly induced”. In addition, the “conversion” value in series [3] is on record as “induced”. For the same compound, in series [4], the “downstream p70S6K phosphorylation” value was “concomitant reduction”. Also, the “compound-induced GFP-LC3 puncta formation in the presence of AMPK inhibitor (Compound C)” value in series [5] is “significant reduction”. In addition, the “cytotoxic effect to autophagy deficient cells (Atg7−/−) versus Atg7 wild-type” value in series [8] (setting [10]) is given as “less cytotoxicity”. For the same compound, the “clearance” value in series [6] is reported as “enhanced”. Moreover, in series [7], the “formed mutant huntingtin aggregate (HDQ55)” value is “significantly reduced”.
In series [1], `COc1cc2c(cc1OC)[C@@H](Cc1ccc(O)c(Oc3cc4c(cc3OC)CCN(C)[C@@H]4Cc3ccc(O)cc3)c1)N(C)CC2` [liensinine] came in with an IC50 of 4.52 to 61.8 µM. Besides, in series [2], the GFP-LC3 puncta formation result was “significantly induced”. Further, the “conversion” value in series [3] is “induced”. Besides, in series [4], the “downstream p70S6K phosphorylation” value was “concomitant reduction”. Besides, in series [5], the “compound-induced GFP-LC3 puncta formation in the presence of AMPK inhibitor (Compound C)” value is listed as “significant reduction”. In addition, the “cytotoxic effect to autophagy deficient cells (Atg7−/−) versus Atg7 wild-type” value in series [8] (setting [10]) is reported as “less cytotoxicity”. In addition, the “clearance” value in series [6] is reported as “enhanced”. For the same compound, the “formed mutant huntingtin aggregate (HDQ55)” value in series [7] was “significantly reduced”.
On to `COc1cc2c(cc1OC)[C@@H](Cc1ccc(Oc3cc(C[C@@H]4c5cc(OC)c(OC)cc5CCN4C)ccc3O)cc1)N(C)CC2` [dauricine], for which the 50% inhibitory concentration (IC50) in series [1] (setting [9]) was 4.52 to 61.8 µM. For the same compound, the GFP-LC3 puncta formation result in series [2] is recorded as “significantly induced”. Also, the “conversion” value in series [3] was “induced”. Besides, in series [4], the “downstream p70S6K phosphorylation” value is on record as “concomitant reduction”. Besides, the “compound-induced GFP-LC3 puncta formation in the presence of AMPK inhibitor (Compound C)” value in series [5] is on record as “significant reduction”. Moreover, the “cytotoxic effect to autophagy deficient cells (Atg7−/−) versus Atg7 wild-type” value in series [8] (setting [10]) is on record as “less cytotoxicity”. The “clearance” value in series [6] is listed as “enhanced”. The “formed mutant huntingtin aggregate (HDQ55)” value in series [7] is “significantly reduced”.
thalidezine displayed an IC50 in series [1] of 4.52 to 61.8 µM. Besides, the GFP-LC3 puncta formation result in series [2] is “significantly induced”. For the same compound, in series [3], the “conversion” value is listed as “induced”. Also, in series [4], the “downstream p70S6K phosphorylation” value was “concomitant reduction”. Besides, the “compound-induced GFP-LC3 puncta formation in the presence of AMPK inhibitor (Compound C)” value in series [5] is reported as “significant reduction”. In series [8], the “cytotoxic effect to autophagy deficient cells (Atg7−/−) versus Atg7 wild-type” value is given as “less cytotoxicity”. Besides, the “clearance” value in series [6] is on record as “enhanced”. In addition, the “formed mutant huntingtin aggregate (HDQ55)” value in series [7] is “significantly reduced”.

Broadly, the IC50 is the point on the concentration scale where inhibition reaches its midpoint.

The record behind these values is patent publication US9561220B2, “Group of alkaloids, the novel autophagic enhancers for treatment of cancers and neurodegenerative conditions thereof” (Macau University of Science and Technology, priority 2014, dated 2017).
